# Activity calls are given as the source filed them. The calls are words filed in the database; no cut-off is given here.
# Assays:
# Mus musculus [1] = test: Analgesic activity in sc dosed mouse assessed as reduction in phenylalanine-induced writhing; assay type: functional
# Cavia porcellus [2] = species: Cavia porcellus; test: Agonist activity at beta-adrenoceptor in guinea pig tracheal spiral assessed as potency for 75% relaxation of spontaneous contraction relative to soterenol; assay type: tissue-based; conditions: Trachea
# Rattus norvegicus [3] = test: Antagonism of morphine-induced analgesia in rat at 20 mg/kg, sc; assay type: functional
# Rattus norvegicus [4] = species: Rattus norvegicus; conditions: Tail
# Mus musculus [5] = test: Inhibition of reserpine-induced ptosis in po dosed mouse; assay type: functional
# Mus musculus [6] = test: Reversal of reserpine-induced ptosis in po dosed mouse; assay type: functional
# [7] = Activity at alpha-adrenoceptor in rat seminal vesicle assessed as potency for producing 50% of that of l-epinephrine-induced contraction relative to soterenol; assay type: tissue-based
# [8] = Blockade of alpha-adrenoceptor in rat seminal vesicle relative to phentolamine; assay type: tissue-based
# Cavia porcellus [9] = species: Cavia porcellus; test: Blockade of beta-adrenoceptor in guinea pig tracheal spiral relative to sotalol; assay type: tissue-based; conditions: Trachea
# Rattus norvegicus [10] = test: Analgesic activity in sc dosed rat by tail flick test; assay type: functional
# Rattus norvegicus [11] = test: Antagonism of morphine-induced analgesia in sc dosed rat
# Rattus norvegicus [12] = species: Rattus norvegicus; test: Anorexiant activity in rat by free feeding method relative to d-amphetamine; assay type: functional
# Canis familiaris = species: Canis familiaris; test: Anorexiant activity in dog by free feeding method relative to d-amphetamine; assay type: functional, Canis lupus familiaris
# Rattus norvegicus [13] = test: Induction of cAMP level in Sprague-Dawley rat hypothalamus at 0.3 mg/kg, sc after 30 mins; assay type: functional, organism-based; parameters: dose 0.3 mg/kg
# Rattus norvegicus [14] = test: Effect on cAMP level in Sprague-Dawley rat heart at 0.3 mg/kg, sc after 30 mins; assay type: functional, organism-based; parameters: dose 0.3 mg/kg
# Rattus norvegicus [15] = test: Effect on cAMP level in Sprague-Dawley rat liver at 0.3 mg/kg, sc after 30 mins; assay type: functional, organism-based; parameters: dose 0.3 mg/kg
# Rattus norvegicus [16] = test: Effect on cAMP level in Sprague-Dawley rat striatum at 0.3 mg/kg, sc after 30 mins; assay type: functional, organism-based; parameters: dose 0.3 mg/kg
# Rattus norvegicus [17] = test: Effect on cAMP level in Sprague-Dawley rat cortex at 0.3 mg/kg, sc after 30 mins; assay type: functional, organism-based; parameters: dose 0.3 mg/kg
# Rattus norvegicus [18] = test: Induction of cAMP level in Sprague-Dawley rat hypothalamus at 0.3 mg/kg, sc cotreated with 15 mg/kg, sc morphine 30 mins before sacrifice; assay type: functional, organism-based
# Hypothalamus [19] = test: Drug uptake in Sprague-Dawley rat hypothalamus at 0.2 mg/kg, ip after 30 mins; assay type: ADME, organism-based; parameters: dose 0.2 mg/kg, route intraperitoneal; conditions: in vivo, 0.5 h
# Brain = test: Drug uptake in Sprague-Dawley rat whole brain at 0.2 mg/kg, ip after 30 mins; assay type: ADME, organism-based; parameters: dose 0.2 mg/kg, route intraperitoneal; conditions: in vivo, 0.5 h
# Hypothalamus [20] = test: Drug uptake in Sprague-Dawley rat hypothalamus at 0.3 mg/kg, ip after 30 mins; assay type: ADME, organism-based; parameters: dose 0.3 mg/kg, route intraperitoneal; conditions: in vivo, 0.5 h
# Rattus norvegicus [21] = test: Antagonism of morphine-induced analgesia in rat at 1.2 mg/kg, sc; assay type: functional, organism-based; parameters: dose 1.2 mg/kg
# Mus musculus [22] = test: Inhibition of reserpine-induced ptosis in po dosed mouse at 25 mg/kg, po; assay type: functional, organism-based; parameters: dose 25 mg/kg
# [23] = Mus musculus, sc, read-out: ED50
# [24] = Mus musculus, po, read-out: ED50
smiles,measurement,setting,value
Oc1ccc(C(O)CNC2CC2)cc1 (stereo unspecified),ED50,Mus musculus [1]; [23],5.6 mg/kg
same,fold change (FC),Cavia porcellus [2],0.0136
same,Activity,Rattus norvegicus [3],inactive
same,ED50,Rattus norvegicus [4],inactive
CCN(CC(O)c1ccc(O)c(NS(C)(=O)=O)c1)C1CC1.Cl (stereo unspecified),ED50,Mus musculus [1]; [23],> 6 mg/kg
same,Activity,Rattus norvegicus [3],inactive
CCOC(CNC1CC1)c1ccc(O)c(NS(C)(=O)=O)c1.Cl (stereo unspecified),ED50,Mus musculus [1]; [23],> 6 mg/kg
same,ED50,Mus musculus [5]; [24],35 mg/kg
same,ED50,Mus musculus [6]; [24],9.6 mg/kg
same,Activity,Rattus norvegicus [3],inactive
Cc1cc(C(O)CNC2CC2)cc(NS(C)(=O)=O)c1O.Cl (stereo unspecified),fold change (FC),Cavia porcellus [2],5.8e-05
same,fold change (FC),[7],8.7
same,ED50,Mus musculus [5]; [24],0.15 mg/kg
same,ED50,Mus musculus [6]; [24],0.67 mg/kg
same,Activity,Rattus norvegicus [3]; route subcutaneous,20.8%
CS(=O)(=O)Nc1cc(C(O)CNC2CC2)ccc1O.Cl (stereo in doubt; 46),ED50,Mus musculus [1],>50 mg/kg
same,fold change (FC),[7],0
same,ED50,Mus musculus [5],31.3 mg/kg
CC[C@H](NC1CC1)[C@H](O)c1ccc(O)c(NS(C)(=O)=O)c1.Cl (relative stereo),ED50,Mus musculus [1]; [23],> 6 mg/kg
same,fold change (FC),Cavia porcellus [2],0.23
same,fold change (FC),[7],0
same,ED50,Mus musculus [5]; [24],20 mg/kg
same,ED50,Mus musculus [6]; [24],8.9 mg/kg
same,Activity,Rattus norvegicus [3],inactive
same,fold change (FC),[8],0.000045
"CS(=O)(=O)Nc1cc(C(O)CNC2CC2)ccc1O.Cl (single isomer, unassigned; (-))",ED50,Mus musculus [1],0.66 mg/kg
same,fold change (FC),[7],108
same,ED50,Mus musculus [5],0.175 mg/kg
same,ED50,Mus musculus [6],0.23 mg/kg
Cl.Oc1ccc(CCNC2CC2)cc1O,ED50,Mus musculus [1]; [23],> 6 mg/kg
same,Activity,Rattus norvegicus [3]; route subcutaneous,32.8%
CS(=O)(=O)Nc1ccc(C(O)CNC2CC2)cc1 (stereo unspecified),Activity,Rattus norvegicus [3],inactive
CS(=O)(=O)Nc1cc(C(O)CNC2CCC2)ccc1O.Cl (stereo unspecified),ED50,Mus musculus [1]; [23],> 6 mg/kg
same,fold change (FC),Cavia porcellus [2],0.36
same,ED50,Mus musculus [5]; [24],20 mg/kg
same,ED50,Mus musculus [6]; [24],24 mg/kg
CS(=O)(=O)Nc1cccc(C(O)CNC2CC2)c1.Cl (stereo unspecified),ED50,Mus musculus [1]; [23],> 6 mg/kg
same,fold change (FC),Cavia porcellus [2],< 0.01
same,ED50,Mus musculus [5]; [24],1 mg/kg
same,ED50,Mus musculus [6]; [24],0.8 mg/kg
same,fold change (FC),Cavia porcellus [9],0.05
CC(N)Cc1ccccc1.O=S(=O)(O)O (racemic) [AMPHETAMINE SULFATE],ED50,Mus musculus [5]; [24],0.67 mg/kg
same,ED50,Mus musculus [6]; [24],1.94 mg/kg
CS(=O)(=O)Nc1cc(C(O)CNC2CC2)ccc1O.Cl (stereo in doubt; 44),ED50,Mus musculus [1],0.56 mg/kg
same,ED50,Rattus norvegicus [10],5 mg/kg
same,fold change (FC),[7],68.8
same,ED50,Mus musculus [5],0.265 mg/kg
same,ED50,Mus musculus [6]; [24],0.255 mg/kg
same,ED50,Rattus norvegicus [11],0.275 mg/kg
same,fold change (FC),Rattus norvegicus [12],22
same,fold change (FC),Canis familiaris,22
CC1(NCC(O)c2ccc(O)c(NS(C)(=O)=O)c2)CC1.Cl (stereo unspecified),fold change (FC),Cavia porcellus [2],2.33
same,ED50,Mus musculus [5]; [24],0.52 mg/kg
same,ED50,Mus musculus [6]; [24],1.1 mg/kg
same,ED50,Rattus norvegicus [11],1 mg/kg
CC(C)(Cc1ccccc1)NCCc1ccc(O)c(NS(C)(=O)=O)c1,fold change (FC),Cavia porcellus [2],0.31
same,Activity,Rattus norvegicus [3],inactive
CS(=O)(=O)Nc1cc(C(O)CNC2CC2)cc(Cl)c1O.Cl (stereo unspecified),ED50,Mus musculus [1]; [23],> 6 mg/kg
same,fold change (FC),Cavia porcellus [2],0.048
same,fold change (FC),[7],4.9
same,ED50,Mus musculus [5]; [24],0.072 mg/kg
same,ED50,Mus musculus [6]; [24],0.082 mg/kg
same,Activity,Rattus norvegicus [3]; route subcutaneous,20.8%
Oc1ccc(C(O)CNC2CC2)cc1Cl (stereo unspecified),ED50,Mus musculus [1]; [23],> 6 mg/kg
same,Activity,Rattus norvegicus [3]; route subcutaneous,14.5%
CN(C)CCCN1c2ccccc2CCc2ccccc21.Cl [IMIPRAMINE HYDROCHLORIDE],ED50,Mus musculus [5]; [24],4.97 mg/kg
same,ED50,Mus musculus [6]; [24],> 320 mg/kg
CS(=O)(=O)Nc1cc(C(O)CNC2CC2)ccc1O (stereo in doubt; 44),fold change (FC),Cavia porcellus [2],0.7
same,Activity,Rattus norvegicus [13],Active
same,Activity,Rattus norvegicus [14],inactive
same,Activity,Rattus norvegicus [15],inactive
same,Activity,Rattus norvegicus [16],inactive
same,Activity,Rattus norvegicus [17],inactive
same,Activity,Rattus norvegicus [18],Active
CC(C)NCC(O)c1ccc(O)c(NS(C)(=O)=O)c1 (stereo unspecified),Activity,Rattus norvegicus [3],inactive
same,ED50,Rattus norvegicus [4],inactive
CS(=O)(=O)Nc1cc(C(O)CNC2(Cc3ccccc3)CC2)ccc1O.Cl (stereo unspecified),fold change (FC),Cavia porcellus [2],0.14
same,ED50,Mus musculus [5]; [24],0.15 mg/kg
same,ED50,Mus musculus [6]; [24],0.32 mg/kg
same,ED50,Rattus norvegicus [11],4.7 mg/kg
CC(C)NCC(O)c1ccc(O)c(NS(C)(=O)=O)c1 (stereo unspecified) [SOTERENOL],ED50,Mus musculus [1]; [23],> 40 mg/kg
same,ED50,Mus musculus [5]; [24],7.6 mg/kg
same,ED50,Mus musculus [6]; [24],16.5 mg/kg
C[C@H](NC1CC1)[C@H](O)c1ccc(O)c(NS(C)(=O)=O)c1.Cl (relative stereo),fold change (FC),Cavia porcellus [2],0.11
same,ED50,Mus musculus [5]; [24],0.51 mg/kg
same,ED50,Mus musculus [6]; [24],0.76 mg/kg
same,Activity,Rattus norvegicus [3],inactive
CC(C)NCC(O)c1ccc(O)c(NS(C)(=O)=O)c1.Cl (stereo unspecified) [SOTERENOL HYDROCHLORIDE],Drug uptake,Hypothalamus [19],Not Active
same,Drug uptake,Brain,Not Active
same,Drug uptake,Hypothalamus [20],Active
CS(=O)(=O)Nc1cc(O)cc(C(O)CNC2CC2)c1.Cl (stereo unspecified),Activity,Cavia porcellus [2],inactive
same,Activity,[7],Not Active
CCC(Cc1ccc(O)c(NS(C)(=O)=O)c1)NC1CC1.Cl (stereo unspecified),ED50,Mus musculus [1]; [23],> 6 mg/kg
same,fold change (FC),Cavia porcellus [2],0.0013
CS(=O)(=O)Nc1cc(C(=O)CNC2CC2)ccc1O.Cl,ED50,Mus musculus [1]; [23],> 6 mg/kg
same,Activity,Rattus norvegicus [3],inactive
C=CCN1CC[C@]23c4c5ccc(O)c4O[C@H]2[C@@H](O)C=C[C@H]3[C@H]1C5.Cl [NALORPHINE HYDROCHLORIDE],ED50,Mus musculus [1]; [23],2.5 mg/kg
same,ED50,Rattus norvegicus [11],0.37 mg/kg
same,ED50,Rattus norvegicus [4],inactive
CS(=O)(=O)Nc1cc(C(O)CNC2CC2)ccc1O (stereo in doubt; 46),fold change (FC),Cavia porcellus [2],0.0035
same,Activity,Rattus norvegicus [21],inactive
CS(=O)(=O)Nc1cc(C(O)CNC2CC2)ccc1O.Cl (stereo unspecified),Drug uptake,Hypothalamus [19],Not Active
same,Drug uptake,Brain,Not Active
same,Drug uptake,Hypothalamus [20],Active
"CS(=O)(=O)Nc1cc(C(O)CNC2CC2)ccc1O (single isomer, unassigned; (-))",fold change (FC),Cavia porcellus [2],1.9
CN1CC[C@]23c4c5ccc(O)c4O[C@H]2[C@@H](O)C=C[C@H]3[C@H]1C5.CN1CC[C@]23c4c5ccc(O)c4O[C@H]2[C@@H](O)C=C[C@H]3[C@H]1C5.O=S(=O)(O)O,ED50,Mus musculus [1]; [23],0.62 mg/kg
same,ED50,Rattus norvegicus [10],1.9 mg/kg
CN(C)S(=O)(=O)Nc1cc(C(O)CNC2CC2)ccc1O.Cl (stereo unspecified),ED50,Mus musculus [1]; [23],1.7 mg/kg
same,ED50,Rattus norvegicus [10],50 mg/kg
same,fold change (FC),Cavia porcellus [2],0.028
same,ED50,Mus musculus [5]; [24],0.94 mg/kg
same,ED50,Mus musculus [6]; [24],1.3 mg/kg
same,ED50,Rattus norvegicus [11],0.72 mg/kg
C[C@H](NC1CC1)[C@H](O)c1cccc(NS(C)(=O)=O)c1.Cl (relative stereo),ED50,Mus musculus [1]; [23],> 6 mg/kg
same,fold change (FC),Cavia porcellus [9],0.1
CS(=O)(=O)Nc1cc(CCNC2CC2)ccc1O.Cl,ED50,Mus musculus [1]; [23],0.62 mg/kg
same,ED50,Rattus norvegicus [10],2.77 mg/kg
same,fold change (FC),Cavia porcellus [2],0.002
same,ED50,Mus musculus [5]; [24],3.6 mg/kg
same,ED50,Mus musculus [6]; [24],1.5 mg/kg
same,ED50,Rattus norvegicus [11],0.21 mg/kg
same,fold change (FC),Rattus norvegicus [12],5.5
same,fold change (FC),Canis familiaris,5.5
CC(C)(Cc1ccccc1)NCC(O)c1ccc(O)c(NS(C)(=O)=O)c1.Cl (stereo unspecified) [ZINTEROL HYDROCHLORIDE],fold change (FC),Cavia porcellus [2],7.9
same,fold change (FC),[7],0
same,inhibition,Mus musculus [22],inactive
same,ED50,Rattus norvegicus [11],18.8 mg/kg
same,fold change (FC),[8],0.1
same,fold change (FC),Rattus norvegicus [12],11
same,fold change (FC),Canis familiaris,11
same,ED50,Rattus norvegicus [4],inactive

# — ChEMBL document CHEMBL3272017, “Adrenergic sulfonanilides. 4. Centrally active beta-adrenergic agonists” (J Med Chem, 1976)
